Key:
[1] = molecular target: T1, KAT6A (Homo sapiens, UniProt Q92794); test: Enzymatic activity assay for KAT6A acetyltransferase (TR-FRET, acetylation of histone substrate H3); type: biochemical
T1 construct: purchased active motife (Active Motif) 81223
Procedure: The acetylation effect of KAT6A on histone substrate H3 was determined using the TR-FRET (time-resolved fluorescence resonance energy transfer) method.
• 1) The compounds prepared in the examples of the present disclosure were each dissolved in dimethylsulfoxide to give solutions at a concentration of 10 mmol/L, and then the solutions were diluted to 0.2 mmol/L, i.e., 1 µL of the compound was added to 49 µL of DMSO, and 3-fold dilution was performed to give 10 concentrations. • 2) 50 nL of the test compounds (example compounds) were transferred to 384 reaction plates using Echo, two replicates for each compound, and the plates were centrifuged at a rotation speed of 1000 rpm for 1 min, the final concentration of dimethylsulfoxide (DMSO) being 0.5%. • 3) 2.5 µL of the reaction mixtures obtained in step 2 was added to the 384 reaction plates in step 2), and the plates were centrifuged at 1000 rpm for 1 min and incubated at 25 °C for 10 min. • 4) 2.5 µL of Bio-H3&AcCOA (acetyl-CoA) reaction solution was added to the 384 reaction plates in step 3), and the plates were centrifuged at a rotation speed of 1000 rpm for 1 min and incubated at 25 °C for 90 min. • 5) 5 µL of Eu-Ab& Ulight-SA detection solution was added to the 384 reaction plates in step 4), and the plates were centrifuged at 1000 rpm for 1 min and incubated at 25 °C for 60 min. • 6) The HTRF […] signals were read using a BMG high-throughput drug-screening multi-mode microplate reader.
The acetylation level of the histone H3 was analyzed by the GraphPad Prism 8 software. The reading of the negative control (0.5% DMSO wells) was set as 0% inhibition rate, and the reading of the positive control (wells with the highest concentration of the control compound) was set as 100% inhibition rate. The inhibition rates were calculated, and then IC50 values (half maximal inhibitory concentration) of test compounds were obtained by using a software nonlinear fitting formula; [formula]
Datapositive control: mean of positive control well values; Datanegative control: mean of negative control well values. Table 3. Enzymatic inhibitory activity of example compounds

[2] = system: human breast cancer cell line ZR-75-1; test: Assay for cell growth inhibitory activity (3D hydrogel culture, CCK-8); type: cell-based; conditions: 96 h; for viability at 0.0001 µM: ZR-75-1, 0.1 nM, read-out: Cell survival rate at example drug concentration 0.1 nM; for viability at 0.001 µM: ZR-75-1, 1 nM, read-out: Cell survival rate at example drug concentration 1 nM; for viability at 0.01 µM: ZR-75-1, 10 nM, read-out: Cell survival rate at example drug concentration 10 nM; for viability at 0.1 µM: ZR-75-1, 100 nM, read-out: Cell survival rate at example drug concentration 100 nM; for viability at 1 µM: ZR-75-1, 1000 nM, read-out: Cell survival rate at example drug concentration 1000 nM
Procedure: The human breast cancer cell line ZR-75-1 (1 × 10^^6 cells per cell culture dish with 100-mm diameter) was cultured in a 1640 culture medium, and 1% double antibiotics (streptomycin and penicillin), 10% fetal bovine serum (FBS), and 1% glutamine (Glumax) were added simultaneously. The cell culture dish was placed at 37 °C with 5% CO2 for 2 days for culture until the cell confluence reached 80%-90% to give cells in the logarithmic growth phase.
• 1) The example compounds were each dissolved in dimethylsulfoxide to give solutions at a concentration of 10 mmol/L, and the solutions were diluted to 250 µmol/L in 10-fold gradient for 5 concentrations, i.e., 0.2 nmol/L, 2 nmol/L, 20 nmol/L, 200 nmol/L, and 2000 nmol/L. • 2) Blank control wells were prepared by adding 0.1% dimethylsulfoxide to the cultured cells, and were used as high-reading control wells; cell-free 3D hydrogel was used as background wells. • 3) The cultured cells were separately added to the compounds in the examples at 0.2 nmol/L, 2 nmol/L, 20 nmol/L, 200 nmol/L, and 2000 nmol/L as test wells, with the same volumes as the original culture solutions.
• 1) The cells were collected, resuspended in a PBS balanced salt solution, and counted; and the cells were mixed with the 3D hydrogel stock solution and prepared into hydrogel cell suspensions with proper density. • 2) The 3D hydrogel cell suspension (5 × 10^^4 cells) was added to each well in 96-well cell culture plates with low surface adsorption, and the plates were incubated at 37 °C with 5% CO2 for 20 min. • 3) The complete culture medium containing the compound prepared in 1.2 with an equal volume to that of the cell suspension in step 2 was added to the 96-well cell culture plate. • 4) The cells were cultured at 37 °C in a 5% CO2 incubator for 96 h.
• 1) The complete culture medium in the upper layer above the hydrogel was pipetted from each well of the 96-well cell culture plate with a vacuum pump or a manual pipette with careful processing to avoid breaking the hydrogel lower layer. • 2) The complete culture medium containing the CCK-8 substrate with an equal volume to that of the original hydrogel was added to each well. • 3) The plate was cultured at 37 °C with 5% CO2 for 1 h. • 4) The 96-well cell culture plate was placed in a microplate reader, and the values of A450 and A630 were separately detected.
Data analysis: The relative inhibitory level was analyzed by using Excel software, and the survival rates of cells under different compound culture conditions were obtained; [formula]
High-reading control well: cells + dimethylsulfoxide; background well: cell-free hydrogel. Table 7. Cell proliferation inhibitory activity of some of example compounds

[3] = In-vivo pharmacokinetic study in rats; set-up: species or system SD female rats; conditions: female, SD, rat, plasma, po, 5 mg/kg, intragastric administration; for AUC(0-t): read-out: AUC0-24h
Procedure: 1.1 Instrument: high-performance liquid chromatograph: SHIMADZU LC-30AD; mass spectrum: AB SCIEX mass spectrometer Triple Quad 5500; all measured data were calculated and processed using Microsoft Excel, and relevant pharmacokinetic parameters were calculated using WinNonlin software. The main obtained kinetic parameters are Tmax, T1/2, Cmax, AUC0-24 h, and AUCinf. […] Sample injection amount: 1 µL.
1.2 Animals: three SD female rats were used. The body weight range was 180-300 g. After purchase, the rats were bred in the experimental animal center for two days for later use. The rats were fasted 12 h before administration and 4 h after administration, and given ad libitum access to water during the assay. Blood samples were taken at predetermined time points after intragastric administration.
1.3 Vehicle: 0.5% HPMC (hydroxypropyl methylcellulose) + 0.4% Tween80 + 99.1% water. Preparation of intragastric administration solution: The compound was precisely weighed, the vehicle was added, and then the drug was completely dissolved by ultrasonication at room temperature for 5 min and prepared into a 0.5 mg/mL solution. After the intragastric administration, blood samples were taken at 0.083 h, 0.25 h, 0.5 h, 1.0 h, 2.0 h, 4.0 h, 7.0 h, and 24 h. The blood collection mode is as follows: 0.2 mL of the jugular vein blood was collected, EDTA-K2 was used as an anticoagulation agent, the collected blood sample was transferred into a microcentrifuge tube containing the anticoagulation agent, and the tube was centrifuged at 4 °C and 4000 g for 5 min to separate the plasma. All plasma samples collected were stored at -75±15 °C until analysis.
The compound was precisely weighed and prepared into a standard curve working solution and a quality control working solution at different concentrations. The blank plasma was added and prepared into a plasma standard curve and a quality control sample. LC/MS/MS analysis was performed after pretreatment using a protein precipitation method, and then the concentration of the compounds described above in the plasma was measured. All measured data were collected and processed by the relevant software, and pharmacokinetic parameters were calculated using Winnonlin software. Table 9. Pharmacokinetic parameters of some compounds in the examples in rats

T1 sequence (Q92794 whole entry): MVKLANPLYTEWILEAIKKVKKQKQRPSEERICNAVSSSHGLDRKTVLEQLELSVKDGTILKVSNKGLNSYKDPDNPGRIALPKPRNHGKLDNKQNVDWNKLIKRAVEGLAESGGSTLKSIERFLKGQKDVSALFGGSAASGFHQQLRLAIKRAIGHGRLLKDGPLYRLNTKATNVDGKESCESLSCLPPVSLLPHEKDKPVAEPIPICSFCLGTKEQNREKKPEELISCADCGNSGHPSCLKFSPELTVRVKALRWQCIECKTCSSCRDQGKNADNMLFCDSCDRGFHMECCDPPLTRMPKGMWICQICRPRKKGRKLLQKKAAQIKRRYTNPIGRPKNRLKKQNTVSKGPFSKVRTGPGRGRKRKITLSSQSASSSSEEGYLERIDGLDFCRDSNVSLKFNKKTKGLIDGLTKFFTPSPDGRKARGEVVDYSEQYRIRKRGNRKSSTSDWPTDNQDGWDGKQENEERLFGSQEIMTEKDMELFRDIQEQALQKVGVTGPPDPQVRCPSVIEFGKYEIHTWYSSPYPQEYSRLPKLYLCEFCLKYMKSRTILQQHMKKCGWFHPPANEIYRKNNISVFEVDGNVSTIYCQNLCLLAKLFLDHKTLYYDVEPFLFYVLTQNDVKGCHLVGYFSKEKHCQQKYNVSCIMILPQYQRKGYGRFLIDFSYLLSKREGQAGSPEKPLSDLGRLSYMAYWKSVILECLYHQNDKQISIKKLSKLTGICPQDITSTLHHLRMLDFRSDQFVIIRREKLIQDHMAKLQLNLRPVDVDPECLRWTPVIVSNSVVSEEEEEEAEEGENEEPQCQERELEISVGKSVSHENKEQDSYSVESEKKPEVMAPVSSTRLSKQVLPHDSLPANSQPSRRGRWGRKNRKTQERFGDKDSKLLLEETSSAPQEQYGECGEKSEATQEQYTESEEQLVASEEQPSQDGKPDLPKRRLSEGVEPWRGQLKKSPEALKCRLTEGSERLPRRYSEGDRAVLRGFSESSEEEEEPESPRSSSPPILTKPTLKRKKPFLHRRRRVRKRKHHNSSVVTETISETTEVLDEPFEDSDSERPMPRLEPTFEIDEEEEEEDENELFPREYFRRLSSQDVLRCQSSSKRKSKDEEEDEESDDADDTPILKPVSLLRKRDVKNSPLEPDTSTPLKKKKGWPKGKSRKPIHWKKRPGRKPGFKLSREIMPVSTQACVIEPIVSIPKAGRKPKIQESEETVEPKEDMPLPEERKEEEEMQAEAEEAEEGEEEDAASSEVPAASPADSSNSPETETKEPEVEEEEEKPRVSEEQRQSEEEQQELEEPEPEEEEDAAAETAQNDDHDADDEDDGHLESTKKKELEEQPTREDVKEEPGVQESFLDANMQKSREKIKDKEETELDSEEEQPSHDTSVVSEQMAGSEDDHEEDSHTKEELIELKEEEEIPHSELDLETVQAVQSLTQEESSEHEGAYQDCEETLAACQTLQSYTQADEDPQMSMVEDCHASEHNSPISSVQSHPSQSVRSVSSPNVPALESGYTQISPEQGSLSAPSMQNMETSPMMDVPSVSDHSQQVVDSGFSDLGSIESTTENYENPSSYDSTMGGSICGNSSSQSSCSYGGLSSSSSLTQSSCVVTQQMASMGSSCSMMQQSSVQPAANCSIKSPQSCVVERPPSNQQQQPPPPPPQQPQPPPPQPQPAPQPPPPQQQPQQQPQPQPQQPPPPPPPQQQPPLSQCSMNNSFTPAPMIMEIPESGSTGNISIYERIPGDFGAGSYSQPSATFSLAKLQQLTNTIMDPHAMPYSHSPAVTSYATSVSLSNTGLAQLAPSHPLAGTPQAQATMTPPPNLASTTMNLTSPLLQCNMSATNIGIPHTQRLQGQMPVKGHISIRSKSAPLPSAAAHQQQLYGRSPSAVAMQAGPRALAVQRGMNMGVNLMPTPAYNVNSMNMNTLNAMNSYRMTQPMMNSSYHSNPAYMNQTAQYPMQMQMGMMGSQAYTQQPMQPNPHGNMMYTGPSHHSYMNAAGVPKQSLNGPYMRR

SMILES	IC50 [1]	viability at 0.0001 µM [2]	viability at 0.001 µM [2]	viability at 0.01 µM [2]	viability at 0.1 µM [2]	viability at 1 µM [2]	half-life [3]	AUC(0-inf) [3]	Cmax [3]	Tmax [3]	AUC(0-t) [3]
COc1nc(Cn2cccn2)cc2onc(NS(=O)(=O)c3cccc4c3OCC4)c12 [Example 1, N-(6-((1H-pyrazol-1-yl)methyl)-4-methoxyisoxazolo[4,5-c]pyridin-3-yl)-2,3-dihydrobenzofuran-7-sulfonamide]	7.33 nM	95%	80%	54%	40%	30%					
COc1ccc2c(c1S(=O)(=O)Nc1noc3cc(Cn4cccn4)nc(OC)c13)CCCC2 [Example 3]	1.76 nM	71%	55%	43%	40%	29%					
COc1nc(Cn2cccn2)cc2onc(NS(=O)(=O)c3cccc4c3ccn4C)c12 [Example 6, N-(6-((1H-Pyrazol-1-yl)methyl)-4-methoxyisoxazolo[4,5-c]pyridin-3-yl)-1-methyl-1H-indole-4-sulfonamide]	3.11 nM	74%	66%	45%	38%	25%	24.6 h	1300 µg·h/mL	31600 ng/mL	0.33 h	502 µg·h/mL
COc1ccc2cccnc2c1S(=O)(=O)Nc1noc2cc(Cn3cccn3)nc(OC)c12 [Example 11, N-(6-((1H-Pyrazol-1-yl)methyl)-4-methoxyisoxazolo[4,5-c]pyridin-3-yl)-7-methoxyquinoline-8-sulfonamide]	0.77 nM							32 µg·h/mL	3310 ng/mL	0.83 h	32 µg·h/mL
COc1cc2c(c(OC)c1S(=O)(=O)Nc1noc3cc(Cn4cccn4)nc(OC)c13)CCC2 [Example 62, N-(6-((1H-Pyrazol-1-yl)methyl)-4-methoxyisoxazolo[4,5-c]pyridin-3-yl)-4,6-dimethoxy-2,3-dihydro-1H-indene-5-sulfonamide]	0.84 nM						≤ 10 h	450 µg·h/mL	25600 ng/mL	1.17 h	356 µg·h/mL
[2H]C([2H])(c1cc2onc(NS(=O)(=O)c3cc4c(cc3OC)CCO4)c2c(OC)n1)n1cccn1 [Example 104, N-(6-((1H-pyrazol-1-yl)methyl-d2)-4-methoxyisoxazolo[4,5-c]pyridin-3-yl)-5-methoxy-2,3-dihydrobenzofuran-6-sulfonamide]	1.77 nM										
COc1cc2c(cc1S(=O)(=O)Nc1noc3cc(Cn4cccn4)nc(OC)c13)OC(C)(C)C2 [Example 105, N-(6-((1H-pyrazol-1-yl)methyl)-4-methoxyisoxazolo[4,5-c]pyridin-3-yl)-5-methoxy-2,2-dimethyl-2,3-dihydrobenzofuran-6-sulfonamide]	2.18 nM										
COc1nc(Cn2cccn2)cc2onc(NS(=O)(=O)c3cc(C4CC4)cc4c3OCCC4)c12 [Example 106, N-(6-((1H-pyrazol-1-yl)methyl)-4-methoxyisoxazolo[4,5-c]pyridin-3-yl)-6-cyclopropyl-3,4-dihydro-1H-benzopyran-8-sulfonamide]	0.94 nM										
COc1nc(Cn2cccn2)cc2onc(NS(=O)(=O)c3cc(C#N)cc4c3OCCC4)c12 [Example 107, N-(6-((1H-pyrazol-1-yl)methyl)-4-methoxyisoxazolo[4,5-c]pyridin-3-yl)-6-cyano-3,4-dihydro-1H-benzopyran-8-sulfonamide]	5.86 nM										
COc1cc2occc2cc1S(=O)(=O)Nc1noc2cc(Cn3cccn3)nc(OC)c12 [Example 108, N-(6-((1H-pyrazol-1-yl)methyl)-4-methoxyisoxazolo[4,5-c]pyridin-3-yl)-6-methoxybenzofuran-5-sulfonamide]	1.26 nM										
